Data on 21 compounds can be found in PubChem BioAssay AID328 (DTP/NCI, 2004).

“And” between values parts separate entries of the source, which are not always exact repeats. Equal entries are not always repeated. Inconclusive results and toxic doses are left out.

The assay concerns BDF1 mice, P388 leukemia ip, median survival T/C. The assay can be described thus: NCI In Vivo Anticancer Drug Screen. Data for tumor model P388 Leukemia (intraperitoneal) in B6D2F1 (BDF1) mice. The following applies: endpoint: median survival time, higher = longer survival. The gist of the method:
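Survival ratio, drug arm over vehicle arm, in mice with a transplanted tumour.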

Setting [1] is: dose: 50.0 mg/kg/injection, schedule: Q01DX009 (ip), vehicle: saline with Tween-80.
The mark [2] stands for this setting: dose: 35.0 mg/kg/injection, schedule: Q01DX009 (ip), vehicle: saline.
Setting [3] is: dose: 100.0 mg/kg/injection, schedule: Q01DX009 (ip), vehicle: saline with Tween-80.
[4] abbreviates: dose: 200.0 mg/kg/injection, schedule: Q01DX009 (ip), vehicle: saline with Tween-80.
Where [5] appears, read: dose: 50.0 mg/kg/injection, schedule: Q01DX009 (ip), vehicle: saline.
Where [6] appears, read: dose: 100.0 mg/kg/injection, schedule: Q04DX003 (ip), vehicle: saline.
Setting [7] is: dose: 12.5 mg/kg/injection, schedule: Q01DX009 (ip), vehicle: saline.
[8] abbreviates: dose: 100.0 mg/kg/injection, schedule: Q04DX003 (ip), vehicle: saline with Tween-80.
[9] abbreviates: dose: 200.0 mg/kg/injection, schedule: Q04DX003 (ip), vehicle: saline with Tween-80.
The mark [10] stands for this setting: dose: 400.0 mg/kg/injection, schedule: Q04DX003 (ip), vehicle: saline with Tween-80.
Setting [11] is: dose: 400.0 mg/kg/injection, schedule: Q01DX009 (ip), vehicle: saline with Tween-80.

On to `O=C1OC(=O)c2c(Br)c(Br)c(Br)c(Br)c21`, for which the T/C was 109 % of control (dose: 25.0 mg/kg/injection, schedule: Q01DX009 (ip), vehicle: saline with Tween-80); 90 % of control (dose: 56.25 mg/kg/injection, schedule: Q01DX009 (ip), vehicle: saline with Tween-80); 113 % of control (dose: 75.0 mg/kg/injection, schedule: Q01DX009 (ip), vehicle: saline with Tween-80); 109 % of control (dose: 150.0 mg/kg/injection, schedule: Q01DX009 (ip), vehicle: saline with Tween-80).
For the compound `CN=S(=O)(OCCCCCCCCCOS(=O)(=NC)c1ccc(C)cc1)c1ccc(C)cc1` (configuration not stated), the T/C (dose: 12.5 mg/kg/injection, schedule: Q01DX009 (ip), vehicle: saline with Tween-80) was 108 % of control and the T/C under setting [1] is 117 % of control.
Consider `Cc1cc(O)c2c(c1)C(=O)C(c1c(C)cc3c(c1O)C(=O)C=CC3=O)=CC2=O`, for which the T/C reads like this: (dose: 1.25 mg/kg/injection, schedule: Q01DX009 (ip), vehicle: saline) 89 % of control; (dose: 2.5 mg/kg/injection, schedule: Q01DX009 (ip), vehicle: saline) 114 % of control; (dose: 5.0 mg/kg/injection, schedule: Q01DX009 (ip), vehicle: saline) 102 % of control; (dose: 10.0 mg/kg/injection, schedule: Q01DX009 (ip), vehicle: saline) 105 % of control and 116 % of control; (dose: 14.0 mg/kg/injection, schedule: Q01DX009 (ip), vehicle: saline) 106 % of control; (dose: 22.0 mg/kg/injection, schedule: Q01DX009 (ip), vehicle: saline) 116 % of control. Moreover, under setting [2], the T/C was 99 % of control.
As to `CC1(C)N=C(N)N=C(N)N1c1cccc(CCCCc2ccc(S(=O)(=O)F)cc2)c1`, the T/C is 120 % of control (dose: 2.75 mg/kg/injection, schedule: Q01DX009 (ip), vehicle: saline); 150 % of control (dose: 8.25 mg/kg/injection, schedule: Q01DX009 (ip), vehicle: saline); 150 % of control (dose: 18.75 mg/kg/injection, schedule: Q01DX009 (ip), vehicle: saline).
With `COC1(C(C)(C)C)C=C(C)/C(=C2\C(=O)Oc3c2cc(C)cc3C(C)(C)C)O1` (configuration not stated), the T/C by setting is: under setting [1], 99 % of control; under setting [3], 92 % of control; under setting [4], 96 % of control.
In the case of `N#Cc1ccccc1[N+](=O)[O-]`, the T/C reads like this: (dose: 4.0 mg/kg/injection, schedule: Q01DX010 (ip), vehicle: carboxymethylcellulose (CMC)) 100 % of control; (dose: 16.0 mg/kg/injection, schedule: Q01DX010 (ip), vehicle: carboxymethylcellulose (CMC)) 100 % of control.
In the case of `Cc1ccc(CN(CC(=O)O)S(C)(=O)=O)cc1`, the T/C (dose: 100.0 mg/kg/injection, schedule: Q04DX003 (ip), vehicle: other) was 106 % of control; the T/C (dose: 200.0 mg/kg/injection, schedule: Q04DX003 (ip), vehicle: other) is 109 % of control; the T/C (dose: 400.0 mg/kg/injection, schedule: Q04DX003 (ip), vehicle: other) is 94 % of control.
As to `CCOc1ccc(Br)cc1/C=N\N=C\c1cc(Br)ccc1OCC`, the T/C was 87 % of control (dose: 6.0 mg/kg/injection, schedule: Q01DX001 (ip), vehicle: Klucel (hydroxypropylcellulose) (HPC)); 95 % of control (dose: 12.0 mg/kg/injection, schedule: Q01DX001 (ip), vehicle: Klucel (hydroxypropylcellulose) (HPC)); 86 % of control (dose: 25.0 mg/kg/injection, schedule: Q01DX001 (ip), vehicle: Klucel (hydroxypropylcellulose) (HPC)).
In the case of `CCOP1(=O)N(C)CCN1C`, the T/C under setting [5] is 95 % of control.
With `OCCN1CCN(CCCN2c3ccccc3CCc3ccccc32)CC1`, the T/C (dose: 25.0 mg/kg/injection, schedule: Q04DX003 (ip), vehicle: saline) is 103 % of control and 117 % of control; the T/C (dose: 50.0 mg/kg/injection, schedule: Q04DX003 (ip), vehicle: saline) is 100 % of control and 107 % of control; the T/C under setting [6] was 115 % of control and 116 % of control.
Turning to `CN=S(=O)(OCCOCCOS(=O)(=NC)c1ccc(C)cc1)c1ccc(C)cc1` (configuration not stated), the T/C was 111 % of control under setting [1], 108 % of control under setting [3] and 114 % of control under setting [4].
For `CC(NC(C)(C)C)C(=O)c1cccc(Cl)c1` (configuration not stated), the T/C under setting [7] is 108 % of control; the T/C (dose: 25.0 mg/kg/injection, schedule: Q01DX009 (ip), vehicle: saline) is 112 % of control; the T/C under setting [5] is 105 % of control.
Take `O=S(=O)(C=C(N1CCCCC1)N1CCCCC1)Cc1ccccc1`: the T/C reads like this: (dose: 8.75 mg/kg/injection, schedule: Q01DX009 (ip), vehicle: saline) 105 % of control; (dose: 17.5 mg/kg/injection, schedule: Q01DX009 (ip), vehicle: saline) 115 % of control; (dose: 26.25 mg/kg/injection, schedule: Q04DX003 (ip), vehicle: saline) 108 % of control; under setting [2], 105 % of control; (dose: 52.5 mg/kg/injection, schedule: Q04DX003 (ip), vehicle: saline) 104 % of control.
As for `O=C1CN=C(c2ccccn2)c2cc(Cl)ccc2N1CCO`, the T/C is 105 % of control under setting [8], 110 % of control under setting [9] and 115 % of control under setting [10].
For the compound `COC(=O)c1cc2ccccc2o1`, the T/C was 95 % of control under setting [8], 95 % of control under setting [9] and 91 % of control under setting [10].
As to `CCN(CC)CCCCCCNc1cc(OC)c(F)c2c(C)ccnc12`, the T/C by setting is: (dose: 3.13 mg/kg/injection, schedule: Q01DX009 (ip), vehicle: saline) 109 % of control; (dose: 6.25 mg/kg/injection, schedule: Q01DX009 (ip), vehicle: saline) 107 % of control; under setting [7], 116 % of control.
Consider `O=C(c1cccnc1)C1Cc2ccccc2C1=O` (configuration not stated), for which the T/C runs as follows: under setting [3], 100 % of control; under setting [8], 100 % of control; under setting [4], 100 % of control; under setting [9], 100 % of control; under setting [11], 91 % of control; under setting [10], 104 % of control.
Consider `C1CNC2NCCNC2N1` (configuration not stated), for which the T/C runs as follows: (dose: 66.0 mg/kg/injection, schedule: Q04DX003 (ip), vehicle: saline) 104 % of control; under setting [6], 100 % of control; (dose: 117.0 mg/kg/injection, schedule: Q04DX003 (ip), vehicle: saline) 109 % of control; (dose: 132.0 mg/kg/injection, schedule: Q01DX009 (ip), vehicle: saline) 156 % of control; (dose: 150.0 mg/kg/injection, schedule: Q04DX003 (ip), vehicle: saline) 100 % of control; (dose: 178.0 mg/kg/injection, schedule: Q04DX003 (ip), vehicle: saline) 154 % of control. In addition, the T/C is 120 % of control (dose: 200.0 mg/kg/injection, schedule: Q04DX003 (ip), vehicle: saline); 122 % of control (dose: 266.0 mg/kg/injection, schedule: Q04DX003 (ip), vehicle: saline); 150 % of control (dose: 300.0 mg/kg/injection, schedule: Q01DX009 (ip), vehicle: saline); 150 % of control (dose: 400.0 mg/kg/injection, schedule: Q01DX009 (ip), vehicle: saline); 172 % of control (dose: 400.0 mg/kg/injection, schedule: Q04DX003 (ip), vehicle: saline).
For `CC(=O)C(C(C)=O)C(Cl)C(C(C)=O)C(C)=O`, the T/C is, setting by setting: (dose: 50.0 mg/kg/injection, schedule: Q01DX005 (ip), vehicle: saline with Tween-80) 99 % of control; (dose: 100.0 mg/kg/injection, schedule: Q01DX005 (ip), vehicle: saline with Tween-80) 92 % of control; (dose: 200.0 mg/kg/injection, schedule: Q01DX005 (ip), vehicle: saline with Tween-80) 99 % of control.
`Cc1ccc(S(=O)(=O)Oc2ccc(-c3ccc(OS(=O)(=O)c4ccc(C)cc4)cc3)cc2)cc1`: the T/C is, setting by setting: under setting [1], 107 % of control; under setting [3], 111 % of control; under setting [4], 90 % of control; under setting [11], 94 % of control.
Regarding `N=C(N)c1ccc(-c2ccc(-c3ccc(C(=N)N)cc3)o2)cc1`, the T/C by setting is: (dose: 3.13 mg/kg/injection, schedule: Q01DX009 (ip), vehicle: saline with Tween-80) 111 % of control; (dose: 6.25 mg/kg/injection, schedule: Q01DX009 (ip), vehicle: saline with Tween-80) 119 % of control.
